In experiment [1] the test system is Pythium ultimum. As to the kind of experiment: Amended agar assay. It is filed as cell-based. On the set-up: key to % control Pythium ultimum (% reduction in colony growth compared to the control plate): D: no control detected at this concentration; C: up to 50% control; B: from 50 to 99% control; A: a control of greater than 99%, i.e. no detectable colony growth. To be noted: potato dextrose agar amended with compound at 2 ppm, 18° C., 2 to 7 days; for inhibition of growth at 2 ppm: Globisporangium ultimum, read-out: % control Pythium ultimum (% reduction in colony growth compared to the control plate). As for the experimental part:
Amended Agar Assay Testing was carried out on potato dextrose agar (PDA) amended with each compound at a test concentration of 2 ppm. Amended agar was poured into three replicate 9 cm petri dishes. Each replicate dish was inoculated in the centre with a 5 mm agar plug taken from the leading edge of a culture aged between 2 and 7 days old; the age of the culture was dependent on the growth rate of the pathogen being tested. The test pathogen was Pythium ultimum. Plates were incubated at 18° C. and the diameter of each colony measured before growth on the fastest growing plate reached the plate edge. This varied between 2 and 7 days depending on the growth rate of test pathogens. The % reduction in colony growth compared to the control plate was calculated. The results are provided in Table 1, in which D represents no control detected at this concentration; C represents up to 50% control; B from 50 to 99% control; and A represents a control of greater than 99%, i.e. no detectable colony growth.

For experiment [2], the system named is Phytophthora cactorum. As to the kind of experiment: 96 well plate test. It is filed as cell-based. Further details: key to EC50 Phytophthora cactorum: G: no control detected at 2 ppm; F: an EC50 of ≥2 ppm; an EC50 of less than 2 ppm. To be noted: agar amended to 2, 0.2, 0.02 and 0.002 ppm, 18° C., assessed after 2 to 3 days; for EC50: Phytophthora cactorum. Here is the method:
Compounds were screened in 96 well plates with 10 compounds per plate. Each compound was screened using agar amended to 2, 0.2, 0.02 and 0.002 ppm, with proline at 50 and 10 ppm and 0.2% DMSO used as controls. Each test concentration and standard was replicated twice on a plate. Compounds were screened against Phytophthora cactorum. The agar used in the test is a 1% potato dextrose agar. 1000 spores/mL agar were added to the appropriate agar.
A ×10 stock solution in 2% DMSO was produced for each dose i.e. 20, 2, 0.2 and 0.02 ppm, and 10 μl of this added to the appropriate wells on the plate. An equivalent amount of 2% DMSO and proline stock at 500 and 100 ppm were added for the controls. To each well 90 μl of the appropriate agar spore suspension was added to give the required final well concentrations. Plates were incubated at room temperature (18° C.) and assessed after 2 to 3 days. The amount of pathogen growth in each well was compared to the DMSO controls and an EC50 concentration was calculated. The results are provided in Table 1 in which G represents no control detected at 2 ppm, F represents an EC50 of ≥2 ppm, and E represents an EC50 of less than 2 ppm.

Experimental findings from patent US20210206744A1, “BENZIMIDAZOLE COMPOUNDS AS AGRICULTURAL CHEMICALS” (REDAG CROP PROTECTION LTD, priority 2017, published 2021) are described below.

Structures are written as SMILES.

What is called EC50 is the concentration that produces a half-maximal response. In the case of `CC(C)CC(=O)Nc1cccc(COc2nc3c(Br)cccc3n2-c2nnnn2C)n1` [Compound 41], the inhibition of growth at 2 ppm in experiment [1] is above 99%. This compound also gave a concentration for a half-maximal effect (EC50) in experiment [2] below 2 µg/mL.

Take `CCCCC(=O)Nc1cccc(COc2nc3c(Br)cccc3n2-c2nnnn2C)n1` [Compound 42]: the inhibition of growth at 2 ppm in experiment [1] was above 99%. This compound came in with an EC50 in experiment [2] below 2 µg/mL.

For the compound `CCCCC(=O)Nc1nc(COc2nc3c(Cl)cccc3n2-c2nnnn2C)cs1` [Compound 43], the “% control Pythium ultimum (% reduction in colony growth compared to the control plate)” value in experiment [1] is reported as “D”. In experiment [2], the “EC50 Phytophthora cactorum” value is “G”.

As to `CC(C)CCC(=O)Nc1nc(COc2nc3c(Cl)cccc3n2-c2nnnn2C)cs1` [Compound 44], the inhibition of growth at 2 ppm in experiment [1] is below 50%. In experiment [2], this compound gave an EC50 of at least 2 µg/mL.

As to `Cn1nnnc1-n1c(OCc2cccc(NC(=O)OC(C)(C)C)n2)nc2c(-c3ccccc3)cccc21` [Compound 45, tert-Buty (6-(((1-(1-methyl-1H-tetrazol-5-yl)-4-phenyl-1H-benzo[d]imidazol-2-yl)oxy)methyl)pyridin-2-yl)carbamate], in experiment [1], the inhibition of growth at 2 ppm was above 99%. In addition, the EC50 in experiment [2] is below 2 µg/mL.

As to `CC(C)COC(=O)Nc1cccc(COc2nc3c(-c4ccccc4)cccc3n2-c2nnnn2C)n1` [Compound 46], the inhibition of growth at 2 ppm in experiment [1] was above 99%. For the same compound, the EC50 in experiment [2] is below 2 µg/mL.

Turning to `CC(C)COC(=O)Nc1cccc(COc2nc3c(C4CC4)cccc3n2-c2nnnn2C)n1` [Compound 47], in experiment [1], the inhibition of growth at 2 ppm is above 99%. In experiment [2], this compound showed an EC50 below 2 µg/mL.
